# Results published in patent publication US20260071117A1, “FUNABLE FLUORESCENT COMPOUNDS AND USES THEREOF” (Arizona Board of Regents on Behalf of the University of …, priority 2021, published 2026).
# Test: Absorbance and fluorescence measurements (excitation maximum, emission maximum, quantum yield vs coumarin 151)
# Format: physicochemical
# Set-up: key to Quantum Yield: fraction relative to coumarin 151 in ethanol standard
# Settings: for λex: absorbance/excitation maximum; for λex / Quantum Yield / λem: measurements run with methanol; for Quantum Yield: coumarin 151 in ethanol as standard; for Quantum Yield / λem: 2.5 mm slit width; for λem: emission maximum
# Text: All reagents and solvents were acquired from commercially available suppliers and used without further purification. Methanol(dried on molecular sieves-Acroseal) was obtained from Acros. […] 1H and 13C NMR spectra were obtained on a Bruker NMR spectrometer at 500/400 and 125/100 MHz respectively. The data is reported as follows: chemical shift in ppm (δ), multiplicity (s=singlet, d=doublet, dd=doublet of doublets, t=triplet, dt=doublet of triplets, td=triplet of doublets, q=quartet, p=pentet, m=multiplet). Coupling constants are reported in Hertz (Hz) and were automatically generated using known NMR analyzer software (MestReNova), these were then subsequently curated. High-resolution mass spectra were obtained using the positive ESI method for all the compounds, obtained in an Ion Cyclotron Resonance (ICR) spectrometer. Absorbance spectra were obtained using an Agilent 8453 UV-visible spectroscopy system. Fluorescence was measured on a Varian (Agilent) Cary Eclipse Fluorimeter. Quantum yield measurements were calculated and reported using coumarin 151 in ethanol as a standard.^1 Fluorescence scans were obtained using a 2.5 mm slit width unless otherwise noted.
# The fluorescence was also measured in different solvents to examine the solvent effects.
Structure (SMILES),λex [nm],Quantum Yield,λem [nm],fluorescence (observation in words)
"Nc1c(-c2ccc(Oc3ccccc3)cc2)nc2ccccn12 [Compound 10m, 2-(4-phenoxyphenyl)imidazo[1,2-a]pyridin-3-amine]",343,0.40,474,
"Nc1c(-c2cccc(Oc3ccccc3)c2)nc2ccccn12 [Compound 10n, 2-(3-phenoxyphenyl)imidazo[1,2-a]pyridin-3-amine]",339,0.40,474,
"Cn1cccc1-c1nc2ccccn2c1N [Compound 10o, 2-(1-methyl-1H-pyrrol-2-yl)imidazo[1,2-a]pyridin-3-amine]",349,0.20,478,
"Nc1c(-c2ccc(N(c3ccccc3)c3ccccc3)cc2)nc2ccccn12 [Compound 10p, 2-(4-(diphenylamino)phenyl)imidazo[1,2-a]pyridin-3-amine]",353,0.34,471,
"CCN(CC)c1ccc(-c2nc3ccccn3c2N)cc1 [Compound 10q, 2-(4-(diethylamino)phenyl)imidazo[1,2-a]pyridin-3-amine]",341,0.12,486,
"COc1cc(OC)cc(-c2nc3ncccn3c2N)c1 [Compound 10r, 2-(3,5-dimethoxyphenyl)imidazo[1,2-a]pyrimidin-3-amine]",371,0.02,553,
"COc1cc(OC)cc(-c2nc3cnccn3c2N)c1 [Compound 10s, 2-(3,5-dimethoxyphenyl)imidazo[1,2-a]pyrazin-3-amine]",382,0.35,477,
"COC(=O)c1ccn2c(N)c(-c3cc(OC)cc(OC)c3)nc2c1 [Compound 10v, methyl 3-amino-2-(3,5-dimethoxyphenyl)imidazo[1,2-a]pyridine-7-carboxylate]",403,0.42,514,
"COC(=O)c1ccc2nc(-c3cc(OC)cc(OC)c3)c(N)n2c1 [Compound 10w, methyl 3-amino-2-(3,5-dimethoxyphenyl)imidazo[1,2-a]pyridine-6-carboxylate]",343,0.02,473,
"COC(=O)c1cccc2nc(-c3cc(OC)cc(OC)c3)c(N)n12 [Compound 10x, methyl 3-amino-2-(3,5-dimethoxyphenyl)imidazo[1,2-a]pyridine-5-carboxylate]",400,,,quenched fluorescence altogether
"COc1cc(OC)cc(-c2nc3cc(Br)ccn3c2N)c1 [Compound 10y, 7-bromo-2-(3,5-dimethoxyphenyl)imidazo[1,2-a]pyridin-3-amine]",349,0.01,487,
"COc1cccc(/C=N/c2c(-c3cccc(OC)c3)c(C#N)c3ccccn23)c1 [Compound 14a, (E)-3-((3-methoxybenzylidene)amino)-2-(3-methoxyphenyl)indolizine-1-carbonitrile]",,,,quenched fluorescence
"COc1cccc(-c2nc3c(nc4ccccn43)c3c(OC)c(OC)ccc23)c1OC [Compound 16b, 5-(2,3-dimethoxyphenyl)-1,2-dimethoxypyrido[2′,1′:2,3]imidazo[4,5-c]isoquinoline]",366,0.34,418,
"COc1cc(-c2nc3c(nc4ccccn43)c3cc(OC)c(OC)c(OC)c23)cc(OC)c1OC [Compound 16c, 2,3,4-trimethoxy-5-(3,4,5-trimethoxyphenyl)pyrido[2′,1′:2,3]imidazo[4,5-c]isoquinoline]",367,0.01,428,
"COc1cc(OC)cc(-c2nc3c(nc4ccccn43)c3cc(OC)cc(OC)c23)c1 [Compound 16d, 5-(3,5-dimethoxyphenyl)-2,4-dimethoxypyrido[2′,1′:2,3]imidazo[4,5-c]isoquinoline]",364,0.01,415,
